From patent US10874103B2, “Antibacterial composition comprising an acetal or a long-chain alkyl hexitane ether” (TEREOS STARCH & SWEETENERS BELGIUM, priority 2014, dated 2020)

Legend:
[1] = system: Enterococci: E. faecium strains; experiment: MIC microdilution on wider panel (Example 8), E. faecium strains; assay type: cell-based
Experimental: (§1) The cultures studied, freshly isolated (after incubation on a blood agar at 37° C. for 18 h), are taken up in sterile water (10 mL) until a 0.5 McFarland (Mc) suspension i.e. at 1 to 2×10^8 CFU (bacteria)/cm^3 is obtained. The bacterial suspension was then diluted to obtain a final concentration of 1×10^6 CFU/cm^3.
(§2) Each well contains an identical quantity of Mueller-Hinton medium (a rich medium for bacterial culture) and bacteria with final 0.5×10^6 CFU/cm^3.
(§3) The test compounds of interest are solubilized in ethanol or DMSO at 25 mg/mL before being diluted to different concentrations two by two. On the multiwell plate, a first series has been planned comprising the culture medium without the test compound of interest. It corresponds to the growth control (control well). These controls serve as reference for comparing bacterial growth with that of the subsequent wells comprising different concentrations of the test compound of interest. The second series of wells comprises the mother solution for the test compound of interest for a concentration in the wells of 256 mg (7 mM). Each series of wells was diluted two by two until the last series for a final concentration of 0.25 mg/L (0.0007 mM). Each concentration is duplicated in the same plate. The plate is incubated for 18 h at 37° C. […] If there is antibacterial activity, the bacterial growth is inhibited, which means that no turbidity or bacterial residue is present.
(§4) The minimum inhibitory concentrations (MIC) are tested on Gram-positive bacterial strains according to the recommendations of the “Clinical Laboratory Standards Institute” (Clinical-Laboratory-Standards-Institute, 6th ed. Approved standard M100-S17. CLSI, Wayne, Pa., 2007). The clinical strains have been isolated in the Hospice de Lyon.
Enterococci: E. faecium (CIP 103510), clinical strains of Enterococci E. faecium: Van A 0151850763 (hereinafter Van A); strain 015 205731401 (hereinafter 1401), […]

[2] = system: L. monocytogenes (CIP 103575), E. faecalis (ATCC® 29212™) and S. aureus (ATCC® 292213™); experiment: MIC microdilution, statements for all three Gram-positive strains together; assay type: cell-based; conditions: listed as Sorbitan dodecyl ether
Experimental: The bacteriostatic properties of the derivatives are evaluated by measuring their minimum inhibitory concentration (MIC) on the bacteria tested. Such a measurement is made using the 96-well microplate microdilution method according to the conditions defined below.
The minimum inhibitory concentrations (MIC) are tested on Gram-positive bacterial strains according to the recommendations of the “Clinical Laboratory Standards Institute” (Clinical-Laboratory-Standards-Institute, 6th ed. Approved standard M100-S17. CLSI, Wayne, Pa., 2007).
The Gram-positive bacteria studied are as follows: L. monocytogenes (CIP 103575), E. faecalis (ATCC® 29212™) and S. aureus (ATCC® 292213™).
as §1, with “i.e.” for “i.e. at”, “5×10^5” for “1×10^6”
Each well contains an identical quantity of Mueller-Hinton medium (a rich medium for bacterial culture) and bacteria with final 5×10^5 CFU/cm^3.
The test compounds of interest are solubilized in 2.5% m of ethanol before being diluted to different concentrations two by two.
On the multiwell plate, a first series has been planned comprising the culture medium without the test compound of interest. […]

[3] = system: Staphylococcus Aureus strains; experiment: MIC microdilution on wider panel (Example 8), Staphylococcus strains; assay type: cell-based, S. aureus
Experimental: as §1, §2, §3, §4
Staphylococci S. aureus: ATCC® 29213™, ATCC 25923,
Staphylococci strains Daptomycin-resistant S. aureus (ST 2015-0188), (ST 2014 1288).
as §1, with “10^8” for “1 to 2×10^8”, “10^6” for “1×10^6”

[4] = system: L. monocytogenes (CIP 103575), E. faecalis (ATCC® 29212™) and S. aureus (ATCC® 292213™); experiment: MBC, statement for all Gram-positive strains tested together; assay type: cell-based; conditions: all three strains
Experimental: To determine whether the agents tested are bactericidal, the minimum bactericidal concentration (MBC) is determined. The MBC corresponds to the concentration leaving a number of bacterial survivors of <4 log. For this, a bacterial count is run from clear wells or without bacterial residue (C≤MIC). To do this, a dilution to 1/100 was conducted with the two wells with the same concentration before seeding on a blood agar using the Spiral technique. After 24 h of incubation at 37° C., the visual count allowed determination of the minimum concentration from which there is no bacterial growth.
To determine the bactericidal effect of compounds presenting bacteriostatic properties, the wells no longer presenting turbidity were reseeded on agar.

Dodecyl-1,4-d-sorbitan [Example 2e] was tested, and the “Minimum inhibitory concentration (MIC) CIP 103510” value ([1]; E. faecium CIP 103510) was 16 µg/mL, the “Minimum inhibitory concentration (MIC) Van A” value ([1]; clinical E. faecium Van A 0151850763) was 16 µg/mL and the “Minimum inhibitory concentration (MIC) 1401” value ([1]; clinical E. faecium strain 015 205731401) was 8 µg/mL. The “MIC / inhibitory concentration on the bacterial strains studied” value [2] was 120 µM, the “Minimum inhibitory concentration (MIC) ST 2014 1288” value ([3]; Daptomycin-resistant S. aureus ST 2014 1288) was 64 µg/mL and the “Minimum inhibitory concentration (MIC) ST 2015 0188” value ([3]; Daptomycin-resistant S. aureus ST 2015-0188) was 64 µg/mL. The “Minimum inhibitory concentration (MIC) HT 2002-0417” value ([3]; Methicillin-resistant S. aureus HT 2002-0417) was 32 µg/mL, the “Minimum inhibitory concentration (MIC) HT 2004-0012” value ([3]; Methicillin-resistant S. aureus HT 2004-0012) was 32 µg/mL and the “Minimum inhibitory concentration (MIC) HT 2006-1004” value ([3]; Methicillin-resistant S. aureus HT 2006-1004) was 32 µg/mL. The “Minimum inhibitory concentration (MIC) LY 199-0053” value ([3]; Methicillin-resistant S. aureus LY 199-0053) was 32 µg/mL, the “Minimum inhibitory concentration (MIC) USA 300” value ([3]; Methicillin-resistant S. aureus Lac-Deleo USA 300) was 32 µg/mL and the “Minimum inhibitory concentration (MIC) MU 3” value ([3]; Methicillin-resistant S. aureus MU 3) was 64 µg/mL. The “Minimum inhibitory concentration (MIC) ATCC 25923” value ([3]; S. aureus ATCC 25923) was 32 µg/mL, the “Minimum inhibitory concentration (MIC) ATCC 29213” value ([3]; S. aureus ATCC 29213) was 32 µg/mL and the “MBC for all the Gram-positive strains tested” value [4] was 120 µM.
